Assay results: patent publication US5712265A (The General Hospital Corporation, priority 1995, dated 1998)
Structures can show the parent of a compound that is named as a salt. Where two headings read alike, the source gives them in different places.

Columns and labels:
isolated fat cells = settings: in vitro; cited from earlier work
[1] = tested on: adipose tissue cyclic AMP phosphodiesterase; settings: cited from earlier work
[2] = 7.5 to 20 mg daily by mouth; cited from earlier work
[3] = 2.5 mg once, cited from earlier work
[4] = in vivo; cited from earlier work
[5] = in vivo; cited from earlier work; remark: listed apart in the source
[6] = in vivo; cited from earlier work; remark: listed apart in the source
[7] = 0.5 mg intramuscularly, cited from earlier work
[8] = cited from earlier work
[9] = Timed administration of methyl scopolamine, long-term effects (Example 7); assay type: in vivo, Sprague-Dawley rat; settings: for Retroperitoneal Fat: 0.5 mg/kg BW two weeks
Method: Methylscopolamine (MSC) (0.5 mg/kgBW) in 1 mL peanut butter was fed at light onset (AM) or at light offset (PM) to 9 Sprague-Dawley rats (30 weeks old) in each group daily for two weeks. Nine-other rats were fed only peanut butter. 18 days after the last treatment, the rats were sacrificed and the indices in Table 6 were measured.

[10] = 5 mg at 2230 h; cited from earlier work
[11] = 0.5 or 0.75 mg s.c., cited from earlier work
[12] = for Cholesterol / HDL-Chol / Plasma Glucose / Plasma Insulin / Reproperitoneal Fat / Triglyceride: 18 days after last treatment; for Food Consumption: P 4 mg/kg or M 500 μg/kg oral, two weeks
Method: Forty male older Sprague-Dawley rats (6 months of age) were separated into 5 groups of 8 rats each. […] A control group (C) received peanut butter only daily at 0800 and 1800. Rat chow (Purina) was made available ad libitum. Treatment lasted two weeks. Blood samples were taken and retroperitoneal fat was dissected and weighed 18 days after the last day of treatment. This made it possible to assess long term effects of the treatment. […] All animals were fasted 6 hours prior to blood sampling and sacrifice.

[13] = 3.0 and 6.0 μg/kg intramuscularly at 11:00 pm; cited from earlier work
[14] = cited from earlier work; remark: listed apart in the source
[15] = in vivo; cited from earlier work; remark: listed apart in the source
[16] = tested on: 3-hydroxy-3-methylglutaryl coenzyme A (HMG-CoA) reductase; settings: cited from earlier work
[17] = AM, 18 days after last treatment
[18] = PM, 18 days after last treatment
[19] = light-offset vs light-onset administration
[20] = dosed at 0800, 18 days post-treatment

## CN1[C@@H]2C[C@@H](OC(=O)[C@H](CO)c3ccccc3)C[C@H]1[C@@H]1O[C@@H]12 [scopolamine hydrobromide]
Isolated fat cells
  glycerol release from isolated fat cells: did not significantly affect
[1]
  adipose tissue cyclic AMP phosphodiesterase activity: nor inhibited

## CC(C)C[C@H]1C(=O)N2CCC[C@H]2[C@]2(O)O[C@](NC(=O)[C@@H]3C=C4c5cccc6[nH]c(Br)c(c56)C[C@H]4N(C)C3)(C(C)C)C(=O)N12 [bromocriptine]
[2]
  patients having aggravation: 4
  patients having improvement in glucose regulation: six
  patients showing no significant change: 14
[3]; 2 h prior to glucose challenge
  plasma glucose concentration: decrease
[3]
  Plasma Insulin: decrease with drug administration was significant
  plasma prolactin levels: decreased markedly

## CCOC(=O)C(C)(C)Oc1ccc(Cl)cc1 [clofibrate]
[4]
  effectiveness: varies from subject to subject
  side effects: nephrotic syndromes, myalgia, nausea and abdominal pain

## CN1CCN(CC(=O)N2c3ccccc3C(=O)Nc3cccnc32)CC1 [pirenzepine]
[5]
  half-life: about 11 hours

## C[N+]1(C)[C@@H]2C[C@@H](OC(=O)[C@H](CO)c3ccccc3)C[C@H]1[C@@H]1O[C@@H]12 [methyl scopolamine]
[6]
  effect of physostigmine on plasma pituitary hormones (cortisol, prolactin, ACTH): inhibited
[7]; 1/2 h before bedtime
  overall and mean peak growth hormone levels during the night: dramatically reduced
[7]
  insulin-induced hypoglycemia: did not affect sleep patterns or insulin-induced hypoglycemia
  prolactin levels during sleep: did not affect prolactin levels during sleep
  sleep patterns: did not affect sleep patterns
[8]; chronic use of 5 mg
  tolerability: not particularly well tolerated by most patients
[8]; given at bedtime
  dawn phenomenon: attenuated
  sleep induced growth hormone secretion: suppressed
[9]; AM (light onset), 18 days after last treatment
  Retroperitoneal Fat: 2.78 ± 0.08 g
[9]; [17]
  Cholesterol: 94.7 ± 4.9 mg/dL
  Glucose: 151.8 ± 19.6 mg/dL
  HDL Cholesterol: 32.5 ± 4.1 mg/dL
  Insulin: 144.1 ± 5.9 μU/mL
  Triglycerides: 197 ± 18 mg/dL
[9]; PM (light offset), 18 days after last treatment
  Retroperitoneal Fat: 2.45 ± 0.07 g
[9]; [18]
  Cholesterol: 94.1 ± 5.7 mg/dL
  HDL Cholesterol: 45.2 ± 4.2 mg/dL
  Insulin: 163.8 ± 2.7 μU/mL
  Triglycerides: 106 ± 21 mg/dL
[9]; Table 6
  persistence after cessation of treatment: long-term effect that persists after cessation of the treatment
[9]; light onset or offset
  glucose, change in words: significantly reduced
  insulin, change in words: significantly reduced
  retroperitoneal fat, change in words: significantly reduced
[9]; [19]
  cholesterol, change in words: significantly increased cholesterol
  insulin, change in words: significantly reduced triglycerides and insulin
  triglycerides, change in words: significantly reduced triglycerides
[9]; only at light offset
  HDL, change in words: increased HDL
  triglycerides, change in words: significantly reduced
[10]
  dawn effect: decrease
  peak growth hormone concentrations after sleep: marked inhibition
[5]
  half-life: 4 to 6 h
[11]; after physostigmine
  elevated AVP levels: decreased
  elevated cortisol levels: decreased
  elevated prolactin levels: decreased
[11]
  growth hormone secretion: inhibited
[12]; dosed at 0800
  food consumption, change in words: significant increase
  Cholesterol: 96.8 ± 1.8 mg/dL
  HDL-Chol: 43.9 ± 2.7 mg/dL
  Plasma Glucose: 158 ± 4
  Plasma Insulin: 118 ± 7
  Reproperitoneal Fat: 2.18 ± 0.31 g
  Triglyceride: 90.0 ± 3.1 mg/dL
  Food Consumption: 17.5 ± 1.3 g/day
[12]; [20]
  insulin resistance (plasma insulin and glucose), in words: improved insulin resistance
  plasma lipid indices, change in words: significantly reduced retroperitoneal body fat, plasma lipid indices
  retroperitoneal body fat, change in words: significantly reduced retroperitoneal body fat
[12]; dosed at 1800
  Cholesterol: 133.6 ± 1.9 mg/dL
  HDL-Chol: 61.0 ± 1.9 mg/dL
  Plasma Glucose: 148 ± 7
  Plasma Insulin: 171 ± 14
  Reproperitoneal Fat: 2.61 ± 0.19 g
  Triglyceride: 188.0 ± 5.7 mg/dL
  Food Consumption: 14.9 ± 1.0 g/day
[12]; only with administration at 1800
  HDL-cholesterol, change in words: increase

## CN1[C@@H]2C[C@@H](OC(=O)[C@H](CO)c3ccccc3)C[C@H]1[C@@H]1O[C@@H]12 [scopolamine]
[13]
  rapid eye movement latency: significant dose-related delay
[14]; 0.01 mg/kg orally 2 h before rotation
  susceptibility to motion sickness: significantly decreased
[14]; 0.01 mg/kg orally
  hormone concentrations (ACTH, cortisol, STH, prolactin) vs placebo: identical

## CC[C@H](C)C(=O)O[C@H]1C[C@@H](C)C=C2C=C[C@H](C)[C@H](CC[C@@H]3C[C@@H](O)CC(=O)O3)[C@H]21 [lovastatin]
[15]
  increase in HDL concentrations: 5-10%
  total cholesterol: specifically reduces total cholesterol
[16]
  HMG-CoA reductase inhibition: selectively inhibits
